Experimental data taken from US10774053B2, “HIV protease inhibitors” (Gilead Sciences, Inc., priority 2017, dated 2020).

System: HIV-1 (IIIB) in MT-4 cells
Test: microbe, parasite or virus in culture
Assay type: cell-based
Details: Human immunodeficiency virus 1, IIIB, MT4, MT-4 cells, HIV-1; read-out: MT4 EC50

With `CC(C)(C)C[C@]1(c2ccc(-c3cnsc3)cc2)NC(=N)N([C@H](COC(=O)NC2(C(F)(F)F)CC2)c2ccc(Cl)c(-c3ncnn3C(F)F)c2)C1=O` [Compound 119] as the compound, how does the EC50 read?
Its EC50 is 10.3 nM.

How did the EC50 turn out when `Cc1ncnn1-c1cc([C@@H](COC(=O)NC2(C(F)F)CC2)N2C(=N)N[C@](CC(C)(C)C)(c3ccc(-c4cnn(C(F)F)c4)cc3)C2=O)ccc1Cl` [Compound 254] was run?
Its EC50 is 18 nM.

`CC(C)(C)C[C@]1(c2ccc(-c3cnn(C(F)F)c3)cc2)NC(=N)N([C@H](COC(=O)NC2(C)CC2)c2ccc(Cl)c(-c3ncn[nH]3)c2)C1=O` [Compound 31] was tested. Which EC50 did it give?
The EC50 was 51 nM.

With `CC(C)(F)C[C@]1(c2ccc(-c3ncccn3)cc2)NC(=N)N([C@H](COC(=O)NC2(C(F)(F)F)CC2)c2ccc(Cl)c(-n3ncnc3C(F)F)c2)C1=O` [Compound 329] as the compound, how does the EC50 read?
Its EC50 is 23 nM.

Which EC50 does the source give for `CC(C)(C)C[C@]1(c2ccc(-c3cnn(C4CC4)c3)c(Cl)c2)NC(=N)N([C@H](COC(=O)NC2(C(F)(F)F)CC2)c2ccc(Cl)c(-n3ncnc3C(F)F)c2)C1=O` [Compound 316] here?
Its EC50 is 13.3 nM.

How did the EC50 turn out when `CC(C)(C)C[C@]1(c2ccc(-c3cnn(C(F)F)c3)cc2)NC(=N)N([C@H](COC(=O)N2CC(F)(F)C2)c2ccc(Cl)c(-n3cncn3)c2)C1=O` [Compound 240] was run?
The EC50 was 5.06 nM.

How did the EC50 turn out when `[H]/N=C1\N[C@](CC(C)(C)C)(c2ccc(-c3cnn(C(F)F)c3)cc2)C(=O)N1[C@H](COC(=O)NC1CC1)c1ccc(Cl)c(-c2c[nH]cn2)c1` [Compound 30] was run?
Its EC50 is 120 nM.

With `CC(C)(F)C[C@]1(c2ccc(-c3ncccn3)cc2)NC(=N)N([C@H](COC(=O)NC(C)(C)C(F)F)c2ccc(Cl)c(-c3ncnn3C(F)F)c2)C1=O` [Compound 127] as the compound, how does the EC50 read?
Its EC50 is 27.5 nM.

With `CC(C)(C)C[C@]1(c2ccc(-c3cnn(C(F)F)c3)cc2)NC(=N)N([C@H](COC(=O)NC2CC2)c2ccc(Cl)c(-c3cncn3C(F)F)c2)C1=O` [Compound 37] as the compound, how does the EC50 read?
Its EC50 is 219 nM.

Which EC50 does the source give for `CC(C)(C)C[C@]1(c2ccc(-c3cnn(C(F)F)c3)cc2)NC(=N)N([C@H](COC(=O)NC2(C(F)(F)F)CC2)c2cc(F)c(Cl)c(-n3ncnc3C(F)F)c2)C1=O` [Compound 192] here?
Its EC50 is 61.9 nM.

Which EC50 does the source give for `Cn1ccc(-c2ccc([C@@]3(CC(C)(C)C)NC(=N)N([C@H](COC(=O)N[C@H]4CC4(F)F)c4ccc(Cl)c(-n5ncnc5C(F)F)c4)C3=O)cc2)n1` [Compound 296] here?
The EC50 was 8.57 nM.

For `CC(C)(C)C[C@]1(c2ccc(-c3cnc(C#N)nc3)cc2)NC(=N)N([C@H](COC(=O)NC2(C(F)(F)F)CC2)c2ccc(Cl)c(-c3ncnn3C(F)F)c2)C1=O` [Compound 118], which EC50 is on record?
Its EC50 is 16.4 nM.

For `C[C@H](NC(=O)OC[C@H](c1ccc(Cl)c(-n2ncnc2C(F)F)c1)N1C(=N)N[C@](CC(C)(C)C)(c2ccn3nccc3c2)C1=O)C(F)(F)F` [Compound 367], which EC50 is on record?
The EC50 was 19 nM.

Which EC50 does the source give for `CC(C)(C)C[C@]1(c2ccc(-c3cnn(C(F)F)c3)cc2)NC(=N)N([C@H](COC(=O)NC2(C)CC2)c2ccc(Cl)c(-n3cnc(C4CC4)n3)c2)C1=O` [Compound 239] here?
The EC50 was 604 nM.

With `CN(C)C(=O)OC[C@H](c1ccc(Cl)c(-c2ncc(-c3ccccc3)s2)c1)N1C(=N)N[C@@](c2cc(F)cc(F)c2)(C2CC2)C1=O` [Compound 2] as the compound, how does the EC50 read?
The EC50 was 3000 nM.

For `CC(C)(C)C[C@]1(c2ccc(-c3cn(C4(C(F)(F)F)CC4)nn3)cc2)NC(=N)N([C@H](COC(=O)NC2(C(F)(F)F)CC2)c2ccc(Cl)c(-n3ncnc3C(F)F)c2)C1=O` [Compound 364], which EC50 is on record?
Its EC50 is 21.6 nM.

`CC(C)(C)C[C@]1(c2ccc(-c3cnn(C(F)F)c3)cc2)NC(=N)N([C@H](COC(=O)N[C@@H]2CC23CC3)c2ccc(Cl)c(-n3ncnc3C(F)F)c2)C1=O` [Compound 341] was tested. Which EC50 did it give?
Its EC50 is 8.54 nM.

`CC(C)(C)C[C@]1(c2ccc(-c3cnn(C(F)F)c3)cc2)NC(=N)N([C@H](COC(=O)NC2(C)CC2)c2ccc(Cl)c(-c3ncnn3C3CC3)c2)C1=O` [Compound 43] was tested. Which EC50 did it give?
The EC50 was 8.18 nM.

How did the EC50 turn out when `CC(C)(C)C[C@]1(c2ccc(-c3cnn(C(F)F)c3)cc2)NC(=N)N([C@H](COC(=O)N[C@H]2CC23CC3)c2ccc(Cl)c(-n3ncnc3C(F)F)c2)C1=O` [Compound 342] was run?
Its EC50 is 8.92 nM.
